Test results taken from the NIST ThermoML archive (doi:10.1016/j.tca.2012.06.011).
± gives the expanded uncertainty stated by the source.

Assay: xn = mol fraction of the nth substance listed
Conditions: 101 kPa, Liquid; for viscosity: Capillary tube (Ostwald / Ubbelohde) method; for mass density: Vibrating tube method

CN1CCNCC1 [N-methylpiperazine] + C1C[C@@H]2[C@H]3CC[C@H](C3)[C@@H]2C1
Conditions	mass density, 298.15 K [kg/m3]	mass density, 303.15 K [kg/m3]	mass density, 308.15 K [kg/m3]	mass density, 313.15 K [kg/m3]	mass density, 323.15 K [kg/m3]	viscosity, 298.15 K [mPa·s]	viscosity, 303.15 K [mPa·s]	viscosity, 308.15 K [mPa·s]	viscosity, 313.15 K [mPa·s]	viscosity, 323.15 K [mPa·s]
x1 = 0.1337	925.63 ± 0.59	921.65 ± 0.59	917.65 ± 0.59	913.66 ± 0.58	905.68 ± 0.58	2.432 ± 0.036	2.214 ± 0.033	2.021 ± 0.03	1.844 ± 0.027	1.574 ± 0.023
x1 = 0.2543	920.97 ± 0.47	916.91 ± 0.46	912.83 ± 0.46	908.76 ± 0.46	900.62 ± 0.46	2.247 ± 0.032	2.051 ± 0.029	1.868 ± 0.027	1.694 ± 0.024	1.452 ± 0.021
x1 = 0.3678	916.92 ± 0.37	912.79 ± 0.36	908.63 ± 0.36	904.48 ± 0.36	896.19 ± 0.36	2.125 ± 0.029	1.925 ± 0.026	1.752 ± 0.024	1.583 ± 0.021	1.351 ± 0.018
x1 = 0.4768	913.25 ± 0.28	909.05 ± 0.28	904.83 ± 0.28	900.62 ± 0.28	892.2 ± 0.28	2.016 ± 0.027	1.822 ± 0.024	1.655 ± 0.022	1.492 ± 0.02	1.281 ± 0.017
x1 = 0.577	910.05 ± 0.23	905.8 ± 0.23	901.53 ± 0.23	897.26 ± 0.23	888.74 ± 0.23	1.943 ± 0.025	1.756 ± 0.023	1.583 ± 0.021	1.435 ± 0.018	1.237 ± 0.016
x1 = 0.672	907.32 ± 0.19	903.04 ± 0.19	898.72 ± 0.19	894.4 ± 0.19	885.79 ± 0.19	1.921 ± 0.024	1.708 ± 0.022	1.545 ± 0.02	1.399 ± 0.017	1.195 ± 0.015
x1 = 0.76	904.59 ± 0.16	900.27 ± 0.16	895.93 ± 0.16	891.58 ± 0.16	882.9 ± 0.17	1.893 ± 0.024	1.681 ± 0.021	1.512 ± 0.019	1.362 ± 0.017	1.162 ± 0.014
x1 = 0.8407	902.15 ± 0.15	897.92 ± 0.15	893.59 ± 0.15	889.24 ± 0.15	880.55 ± 0.15	1.894 ± 0.024	1.656 ± 0.021	1.502 ± 0.018	1.35 ± 0.016	1.154 ± 0.014
x1 = 0.9242	900.27 ± 0.13	895.92 ± 0.14	891.51 ± 0.14	887.11 ± 0.14	878.34 ± 0.14	1.877 ± 0.024	1.632 ± 0.02	1.467 ± 0.018	1.318 ± 0.016	1.116 ± 0.014
x1 = 1	899.28 ± 0.13	894.9 ± 0.13	890.5 ± 0.13	886.07 ± 0.13	877.28 ± 0.13	1.854 ± 0.024	1.583 ± 0.02	1.409 ± 0.017	1.258 ± 0.015	1.064 ± 0.013
